Experiments:
[1] = biological target: T1, human KIAA0001 receptor (Homo sapiens, UniProt Q15391); test: Specificity of response: nucleotide di-phosphate sugar spotted onto agar plate infused with yeast carrying human KIAA0001 receptor and FUS1-LacZ reporter; format: cell-based; settings: 10 nmoles (1 microliter of 10 mM solution) spotted onto agar plate
T1 sequence (Q15391 1-338): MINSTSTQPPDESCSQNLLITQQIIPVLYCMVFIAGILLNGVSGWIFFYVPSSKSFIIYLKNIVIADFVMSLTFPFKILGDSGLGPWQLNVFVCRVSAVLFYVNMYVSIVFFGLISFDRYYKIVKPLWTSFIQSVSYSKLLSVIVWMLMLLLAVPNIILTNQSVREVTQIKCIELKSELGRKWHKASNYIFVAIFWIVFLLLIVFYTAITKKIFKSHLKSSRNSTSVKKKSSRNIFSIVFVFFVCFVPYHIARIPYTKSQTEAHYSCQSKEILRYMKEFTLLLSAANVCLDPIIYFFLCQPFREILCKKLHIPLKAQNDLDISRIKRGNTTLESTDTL
Protocol: The specificity of this response was determined by spotting 10 nmoles (1 microliter of 10 mM solution) of each nucleotide di-phosphate sugar onto an agar plate infused with a yeast strain carrying the human KIAA0001 receptor and the FUS1-LacZ reporter, as described above.

[2] = biological target: T1, human KIAA0001 receptor; settings: FUS1-LacZ yeast expressing human KIAA0001 receptor

Compound: Nc1ncnc2c1ncn2[C@@H]1O[C@H](COP(=O)(O)OP(=O)(O)O[C@H]2O[C@H](CO)[C@@H](O)[C@H](O)[C@H]2O)[C@@H](O)[C@H]1O [ADP-glucose]
- response on agar plate (FUS1-LacZ reporter) [1]: failed to produce a response

Compound: Nc1ncnc2c1ncn2[C@@H]1O[C@H](COP(=O)(O)OP(=O)(O)O[C@H]2O[C@H](CO)[C@@H](O)[C@H](O)[C@@H]2O)[C@@H](O)[C@H]1O [ADP-mannose]
- response on agar plate (FUS1-LacZ reporter) [1]: failed to produce a response

Compound: Nc1ncnc2c1ncn2[C@@H]1O[C@H](COP(=O)(O)OP(=O)(O)OC[C@H]2OC(O)[C@H](O)[C@@H]2O)[C@@H](O)[C@H]1O (stereo partly drawn) [ADP-ribose]
- response on agar plate (FUS1-LacZ reporter) [1]: failed to produce a response

Compound: Nc1ccn([C@@H]2O[C@H](COP(=O)(O)OP(=O)(O)O[C@H]3O[C@H](CO)[C@@H](O)[C@H](O)[C@H]3O)[C@@H](O)[C@H]2O)c(=O)n1 [CDP-glucose]
- response on agar plate (FUS1-LacZ reporter) [1]: failed to produce a response

Compound: C[C@@H]1O[C@H](OP(=O)(O)OP(=O)(O)OC[C@H]2O[C@@H](n3cnc4c(=O)[nH]c(N)nc43)[C@H](O)[C@@H]2O)[C@@H](O)[C@H](O)[C@@H]1O [GDP-fucose]
- response on agar plate (FUS1-LacZ reporter) [1]: failed to produce a response

Compound: Nc1nc2c(ncn2[C@@H]2O[C@H](COP(=O)(O)OP(=O)(O)O[C@H]3O[C@H](CO)[C@@H](O)[C@H](O)[C@H]3O)[C@@H](O)[C@H]2O)c(=O)[nH]1 [GDP-glucose]
- response on agar plate (FUS1-LacZ reporter) [1]: failed to produce a response

Compound: Nc1nc2c(ncn2[C@@H]2O[C@H](COP(=O)(O)OP(=O)(O)O[C@H]3O[C@H](CO)[C@@H](O)[C@H](O)[C@@H]3O)[C@@H](O)[C@H]2O)c(=O)[nH]1 [GDP-mannose]
- response on agar plate (FUS1-LacZ reporter) [1]: failed to produce a response

Compound: Cc1cn([C@H]2C[C@H](O)[C@@H](COP(=O)(O)OP(=O)(O)O[C@H]3O[C@H](CO)[C@@H](O)[C@H](O)[C@H]3O)O2)c(=O)[nH]c1=O [TDP-glucose]
- response on agar plate (FUS1-LacZ reporter) [1]: failed to produce a response

Compound: CC(=O)N[C@H]1[C@@H](OP(=O)(O)OP(=O)(O)OC[C@H]2O[C@@H](n3ccc(=O)[nH]c3=O)[C@H](O)[C@@H]2O)O[C@H](CO)[C@@H](O)[C@@H]1O [UDP-N-acetyl glucosamine]
- response on agar plate (FUS1-LacZ reporter) [1]: positive response
- response determined by expression of -galactosidase [2]: receptor-dependentresponse

Compound: O=C(O)[C@H]1O[C@H](OP(=O)(O)OP(=O)(O)OC[C@H]2O[C@@H](n3ccc(=O)[nH]c3=O)[C@H](O)[C@@H]2O)[C@H](O)[C@@H](O)[C@@H]1O [UDP-glucuronic acid]
- response on agar plate (FUS1-LacZ reporter) [1]: positive response
- response determined by expression of -galactosidase [2]: receptor-dependentresponse

Reference: US6238873A, “Methods of screening for agonists and antagonists of the interaction between the human KIAA0001 receptor and ligands thereof” (Smithkline Beecham Corporation, priority 1999, dated 2001)
